What was measured:
[1] = target: T1, human recombinant GST cleaved CSNK1D (Homo sapiens, UniProt P48730); assay: Purified Enzyme Assay (ADP-Glo CSNK1D Kinase Assay); type: biochemical; settings: 2 nM CSNK1D; peptide substrate 150 μM; ATP 20 μM; 45 minutes at room temperature
T1 construct: GST (cleaved yes); purchased University of Dundee clone DU 19064
In short: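 Percent activity derived from ADP-Glo quantification of ADP produced. Reactions: compound dose-response with human recombinant GST-cleaved CSNK1D, ATP and substrate peptide PLSRTL-pS-VASLPGL, incubated 45 min at room temperature.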

human CSNK1D = target: T2, human CSNK1D (Homo sapiens, UniProt P48730); assay: Whole Cell nBRET CSNK1D Binding Assay; settings: living CHO cells stably expressing human CSNK1D tagged with nanoluciferase; NanoBret tracer 130 nM; 2 hours at 37 C
T2 construct: expressed in transfected cells
T2 sequence (P48730 whole entry): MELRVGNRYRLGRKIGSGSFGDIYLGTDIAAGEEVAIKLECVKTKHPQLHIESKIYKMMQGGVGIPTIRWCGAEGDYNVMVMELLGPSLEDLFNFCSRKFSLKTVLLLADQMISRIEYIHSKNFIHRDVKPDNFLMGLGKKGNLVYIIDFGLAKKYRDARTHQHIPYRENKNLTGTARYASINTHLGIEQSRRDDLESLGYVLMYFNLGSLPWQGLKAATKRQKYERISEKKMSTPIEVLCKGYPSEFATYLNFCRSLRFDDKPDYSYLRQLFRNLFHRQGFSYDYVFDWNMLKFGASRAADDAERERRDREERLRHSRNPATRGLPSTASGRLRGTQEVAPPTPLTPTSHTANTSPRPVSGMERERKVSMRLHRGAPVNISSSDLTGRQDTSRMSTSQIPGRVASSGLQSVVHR

T1 sequence (P48730 whole entry): as above

Cc1cc(-c2c(-c3nccs3)nn3c2CCCC3)c2cn[nH]c2n1 [Example 30, 2-(3-(6-Methyl-1H-pyrazolo[3,4-b]pyridin-4-yl)-4,5,6,7-tetrahydropyrazolo[1,5-a]pyridin-2-yl)thiazole]
IC50 [1]: 28 nM
IC50 (human CSNK1D): 762 nM

c1cc(-c2c(-c3cscn3)nn3c2CCCC3)c2cn[nH]c2n1 [Example 31, 4-(3-(1H-Pyrazolo[3,4-b]pyridin-4-yl)-4,5,6,7-tetrahydropyrazolo[1,5-a]pyridin-2-yl)thiazole]
IC50 [1]: 65 nM
IC50 (human CSNK1D): 995 nM

Cc1cc(-c2c(-c3cscn3)nn3c2CCCC3)c2cn[nH]c2n1 [Example 32, 4-(3-(6-Methyl-1H-pyrazolo[3,4-b]pyridin-4-yl)-4,5,6,7-tetrahydropyrazolo[1,5-a]pyridin-2-yl)thiazole]
IC50 [1]: 60 nM
IC50 (human CSNK1D): 3020 nM

Fc1ccc(-c2nn3c(c2-c2ccnc4[nH]ccc24)CCCC3)cc1 [Example 33, 4-[2-(4-Fluorophenyl)-4,5,6,7-tetrahydropyrazolo[1,5-a]pyridin-3-yl]-1H-pyrrolo[2,3-b]pyridine]
IC50 [1]: 4 nM
IC50 (human CSNK1D): 20 nM

Fc1ccc(-c2nn3c(c2-c2c(F)cnc4[nH]ccc24)CCCC3)nc1 [Example 34, 5-Fluoro-4-[2-(5-fluoro-2-pyridyl)-4,5,6,7-tetrahydropyrazolo[1,5-a]pyridin-3-yl]-1H-pyrrolo[2,3-b]pyridine]
IC50 [1]: 8 nM
IC50 (human CSNK1D): 77 nM

Fc1ccc(-c2nn3c(c2-c2ccnc4[nH]ncc24)CCCC3)nc1 [Example 35, 4-[2-(5-Fluoro-2-pyridyl)-4,5,6,7-tetrahydropyrazolo[1,5-a]pyridin-3-yl]-1H-pyrazolo[3,4-b]pyridine]
IC50 [1]: 11 nM
IC50 (human CSNK1D): 374 nM

Cc1cc(-c2c(-c3ccc(F)cn3)nn3c2CCCC3)c2cn[nH]c2n1 [Example 36, 4-[2-(5-Fluoro-2-pyridyl)-4,5,6,7-tetrahydropyrazolo[1,5-a]pyridin-3-yl]-6-methyl-1H-pyrazolo[3,4-b]pyridine]
IC50 [1]: 6 nM
IC50 (human CSNK1D): 133 nM

Cc1cc(-c2c(-c3ncc(F)cc3F)nn3c2CCCC3)c2cn[nH]c2n1 [Example 37, 4-[2-(3,5-Difluoro-2-pyridyl)-4,5,6,7-tetrahydropyrazolo[1,5-a]pyridin-3-yl]-6-methyl-1H-pyrazolo[3,4-b]pyridine]
IC50 [1]: 11 nM
IC50 (human CSNK1D): 210 nM

Fc1cnc(-c2nn3c(c2-c2ccnc4[nH]ncc24)CCCC3)c(F)c1 [Example 38, 4-[2-(3,5-Difluoro-2-pyridyl)-4,5,6,7-tetrahydropyrazolo[1,5-a]pyridin-3-yl]-1H-pyrazolo[3,4-b]pyridine]
IC50 [1]: 14 nM
IC50 (human CSNK1D): 238 nM

Nc1cc(-c2c(-c3ccc(F)cc3)nn3c2CCC(F)(F)C3)ccn1 [Example 41, 4-(6,6-Difluoro-2-(4-fluorophenyl)-4,5,6,7-tetrahydropyrazolo[1,5-a]pyridin-3-yl)pyridin-2-amine]
IC50 [1]: 8 nM
IC50 (human CSNK1D): 75 nM

Fc1ccc(-c2nn3c(c2-c2ccnc4[nH]ncc24)CCC(F)(F)C3)cc1 [Example 42, 4-(6,6-Difluoro-2-(4-fluorophenyl)-4,5,6,7-tetrahydropyrazolo[1,5-a]pyridin-3-yl)-1H-pyrazolo[3,4-b]pyridine]
IC50 [1]: 3 nM
IC50 (human CSNK1D): 16 nM

Cc1cc(-c2c(-c3ccc(F)cc3)nn3c2CCC(F)(F)C3)c2cn[nH]c2n1 [Example 43, 4-[6,6-Difluoro-2-(4-fluorophenyl)-5,7-dihydro-4H-pyrazolo[1,5-a]pyridin-3-yl]-6-methyl-1H-pyrazolo[3,4-b]pyridine]
IC50 [1]: 2 nM
IC50 (human CSNK1D): 12 nM

Fc1ccc(-c2nn3c(c2-c2ccnc4[nH]ncc24)CCC(F)(F)C3)nc1 [Example 44, 4-(6,6-Difluoro-2-(5-fluoropyridin-2-yl)-4,5,6,7-tetrahydropyrazolo[1,5-a]pyridin-3-yl)-1H-pyrazolo[3,4-b]pyridine]
IC50 [1]: 16 nM
IC50 (human CSNK1D): 296 nM

Cc1cc(-c2c(-c3ccc(F)cn3)nn3c2CCC(F)(F)C3)c2cn[nH]c2n1 [Example 45, 4-(6,6-Difluoro-2-(5-fluoropyridin-2-yl)-4,5,6,7-tetrahydropyrazolo[1,5-a]pyridin-3-yl)-6-methyl-1H-pyrazolo[3,4-b]pyridine]
IC50 [1]: 12 nM
IC50 (human CSNK1D): 169 nM

Fc1ccc(-c2nn3c(c2-c2ccnc4[nH]ncc24)CC(F)(F)CC3)cc1 [Example 46, 4-(5,5-Difluoro-2-(4-fluorophenyl)-4,5,6,7-tetrahydropyrazolo[1,5-a]pyridin-3-yl)-1H-pyrazolo[3,4-b]pyridine]
IC50 [1]: 8 nM
IC50 (human CSNK1D): 82 nM

Cc1cc(-c2c(-c3ccc(F)cc3)nn3c2CC(F)(F)CC3)c2cn[nH]c2n1 [Example 47, 4-(5,5-Difluoro-2-(4-fluorophenyl)-4,5,6,7-tetrahydropyrazolo[1,5-a]pyridin-3-yl)-6-methyl-1H-pyrazolo[3,4-b]pyridine]
IC50 [1]: 11 nM
IC50 (human CSNK1D): 79 nM

Fc1ccc(-c2nn3c(c2-c2ccnc4[nH]ncc24)CC(F)(F)CC3)nc1 [Example 48, 4-[5,5-Difluoro-2-(5-fluoro-2-pyridyl)-6,7-dihydro-4H-pyrazolo[1,5-a]pyridin-3-yl]-1H-pyrazolo[3,4-b]pyridine]
IC50 [1]: 40 nM
IC50 (human CSNK1D): 924 nM

CC1(C)CCc2c(-c3ccnc4[nH]ncc34)c(-c3ccc(F)cn3)nn2C1 [Example 49, 4-[2-(5-Fluoro-2-pyridyl)-6,6-dimethyl-5,7-dihydro-4H-pyrazolo[1,5-a]pyridin-3-yl]-1H-pyrazolo[3,4-b]pyridine]
IC50 [1]: 1 nM
IC50 (human CSNK1D): 11 nM

CC1(C)CCn2nc(-c3ccc(F)cn3)c(-c3ccnc4[nH]ncc34)c2C1 [Example 50, 4-(2-(5-Fluoropyridin-2-yl)-5,5-dimethyl-4,5,6,7-tetrahydropyrazolo[1,5-a]pyridin-3-yl)-1H-pyrazolo[3,4-b]pyridine]
IC50 [1]: 2 nM
IC50 (human CSNK1D): 28 nM

Fc1ccc(-c2nn3c(c2-c2ccnc4[nH]ncc24)C2CCC3CC2)cc1 [Example 64, 2-(4-Fluorophenyl)-3-(1H-pyrazolo[3,4-b]pyridin-4-yl)-4,5,6,7-tetrahydro-4,7-ethanopyrazolo[1,5-a]pyridine]
IC50 [1]: 1 nM
IC50 (human CSNK1D): 12 nM

Fc1ccc(-c2nn3c(c2-c2ccnc4[nH]ncc24)C2CCC3CC2)nc1 [Example 65, 2-(5-Fluoropyridin-2-yl)-3-(1H-pyrazolo[3,4-b]pyridin-4-yl)-4,5,6,7-tetrahydro-4,7-ethanopyrazolo[1,5-a]pyridine]
IC50 [1]: 3 nM
IC50 (human CSNK1D): 55 nM

Cc1cc(-c2c(-c3ccc(F)cc3)nn3c2C2CCC3CC2)c2cn[nH]c2n1 [Example 66, 2-(4-Fluorophenyl)-3-(6-methyl-1H-pyrazolo[3,4-b]pyridin-4-yl)-4,5,6,7-tetrahydro-4,7-ethanopyrazolo[1,5-a]pyridine]
IC50 [1]: 2 nM
IC50 (human CSNK1D): 4 nM

Clc1ccc(-c2nn3c(c2-c2ccnc4[nH]ncc24)COCC3)cc1 [Example 67, 2-(4-Chlorophenyl)-3-(1H-pyrazolo[3,4-b]pyridin-4-yl)-6,7-dihydro-4H-pyrazolo[5,1-c][1,4]oxazine]
IC50 [1]: 20 nM
IC50 (human CSNK1D): 243 nM

Cc1cc(-c2c(-c3ccc(Cl)cc3)nn3c2COCC3)c2cn[nH]c2n1 [Example 68, 2-(4-Chlorophenyl)-3-(6-methyl-1H-pyrazolo[3,4-b]pyridin-4-yl)-6,7-dihydro-4H-pyrazolo[5,1-c][1,4]oxazine]
IC50 [1]: 27 nM
IC50 (human CSNK1D): 206 nM
